Measured values as given in US10251860B2, “Compounds for bone healing” (University of Pittsburgh—Of the Commonwealth System of …, priority 2015, dated 2019).
“Also recorded” adds a separate entry of the source.

Tests used:
[1] = test system: C57BL/6NTac female mice, tibia holes; test: Bone wound healing in drilled mouse tibias (high resolution CT); assay type: in vivo; details: day 21
Method: Eighteen C57BL/6NTac female mice were divided into 2 groups of 9 mice. The first group was placed on water containing 400 μM MMS350. One week later the MMS350 mice were injected IP with 20 mg/kg MMS350 in water 15 minutes before irradiation. The control mice and the MMS350 treated mice were anesthetized with Nembutal and the right hind leg was irradiated to 20 Gy with the remainder of the mouse shielded from the irradiation. Twenty-four hours later holes were drilled into the tibias of all the mice. The MMS350 treated mice were kept on the MMS350 with the water changed weekly. Twenty-one days later the mice were sacrificed and both tibias removed, and fixed. The tibias were imaged using a high resolution CT. The holes in the tibias were measured and the volume of the holes determined.

[2] = test system: 320 cl 3 murine hematopoietic cells; test: Apoptotic markers after 5 Gy irradiation in vitro; assay type: cell-based; details: 24 hours after irradiation
Description: Caspase-3 cleavage and Parpl cleavage illustrated the effects on apoptosis. […] Materials and Methods: Overall Design of Studies (Table 7).

[3] = test system: 32D cl 3 cells; test: 32D cl 3 colony formation in semisolid medium after irradiation; assay type: cell-based, murine; details: delivered before or after irradiation
[4] = test system: Brine shrimp; test: Brine shrimp toxicity assay; assay type: in vivo
Method: General procedure for brine shrimp toxicity assays. Sample preparation. Stock solutions of 3 were prepared by dissolving 3 (50.0 mg) in 5.0 HPLC grade water (5.0 mL), (solution A) and 3 (2.50 g) in HPLC grade water (10.0 mL) (solution B). Stock solutions of DMSO were prepared by diluting DMSO (45 μL) with HPLC grade water (5.0 mL) (solution C) and DMSO (2.27 mL) with HPLC grade water (10.0 mL) (solution D).
In each case, 5 replicates were performed. Each replicate was performed in a 2 dram vial marked at the 4 and 5 mL volume points. To each vial was added artificial sea water (3 mL) followed by the appropriate volume of stock solution. For set 1 (1.0 mg/mL), solution A (0.500 mL) or solution C (0.500 mL) was added. For set 2 (5.0 mg/mL), solution B (0.100 mL) or solution D (0.100 mL) was added to each vial. For set 3 (20.0 mg/mL), solution B (0.400 mL) or solution D (0.400 mL) was added to each vial. For set 4 (50.0 mg/mL), solution B (1.00 mL) or solution D (1.00 mL) was added to each vial. Controls containing HPLC grade water (0.100 mL, 0.400 mL, and 1.00 mL) were prepared in the same manner, and five replicates of each control were prepared.
Brine shrimp eggs (San Francisco Bay Brand) were hatched in a commercial salt mixture (Instant Ocean). Constant aeration was provided using a pump and airstone, and illumination was maintained using a desk lamp. The shrimp were collected in a separate tank after 48 hours and used within 3-4 hours of collection.
Brine shrimp were added to each vial using a plastic transfer pipet. After the shrimp were transferred, artificial sea-water was added until the volume reached the 5-mL mark. One drop of a yeast suspension prepared by suspending 11 mg yeast in sea-water (20 mL) was added to each vial. The shrimp were counted at t=24 hours. Another drop of freshly prepared yeast solution (6 mg in 10 mL sea water) was added, the vials were maintained under illumination, and shrimp were counted at t=48 hours.

[5] = test system: C57BL/6NTac mice, 9.5 Gy total body irradiation; test: Total body irradiation survival (hematopoietic syndrome); assay type: in vivo, mouse
Method: FIG. 13 is a graph of percent survival versus day, illustrating the in vivo mitigation of total body irradiation by MMS350. MMS350 was dissolved in water at a concentration of 2 mg/ml. C57BL/6NTac mice (n=15/group) were irradiated to 9.5 Gy total body irradiation and injected intraperitoneally with 10 mg/kg of MMS350 at 4 or 24 hours after irradiation. The mice were followed for the development of the hematopoietic syndrome at which time the mice were sacrificed.
Mice were irradiated using JL Shepherd Mark 1 Model 68 irradiator to 9.25 total body irradiation dose or a Varian Linear Accelerator (Varian Medical Systems, Inc, Palo Alto, Calif.) to 20 Gy for pulmonary irradiation according to published methods (2, 10, 13).
(§1) Mice were injected intra-peritoneally with MMS350 or JP4-039 (GS-nitroxide) in 50% cremphor/50% ethanol according to published methods. For long-term administration of MMS350, the drug was administered in water bottles with bottles changed every 7 days. The dose of drug per bottle was 100 μM MMS350 starting on day 88. The estimated total amount consumed by each animal daily was 10.9 μg based on a mouse drinking 5 ml of water per day. Chimeric mice irradiated to the thoracic cavity were placed 30 days later on MMS350 in water containing 100 mM MMS350. On day 88 after thoracic irradiation of non-chimeric mice, mice were placed on […] MMS350 in drinking water.

[6] = test system: C57BL/6NTac mice, 20 Gy thoracic irradiation; test: Radiation pulmonary fibrosis after 20 Gy thoracic irradiation; assay type: in vivo, mouse; details: MMS350 in drinking water
Description: For lung irradiation, mice were irradiated to the thoracic cavity with shielding of the head and neck region and abdomen and lower body according to published methods. Animals received 20 Gy single fraction thoracic irradiation and were then maintained according to IACUC directed laboratory conditions. Mice were sacrificed at serial time points after thoracic irradiation including pre-irradiation, days 2, 7, 14, 28, 50, 75, 100, 110, 150 and 200 post-irradiation. Lungs were removed and sagittal sections assayed for percent of lung replaced by fibroblasts and organizing alveolitis according to published methods. Representative lung lobes from the same animals were tested by RT-PCR for level of detectable message for inflammatory cytokines, redox sensitive promoters, and levels of MnSOD.
Lungs from irradiated and luc+ cell line injected mice were removed and serial sectioned. Sections were stained for luc+, GFP+ cells, BrdU incorporation, and for quantitation of percent lung replaced by fibrosis (organizing alveolitis) according to published methods.
as §1

CC1(C[S+]([O-])CC2(C)COC2)COC1 [Compound 3, 3,3′-Sulfinylbis(methylene)bis(3-methyloxetane)]
diameter of tibia hole ([1]; 0 Gy tibia vs control 0 Gy, 400 μM in water plus 20 mg/kg IP): significantly smaller
volume of tibia hole ([1]; 0 Gy+ MMS350 vs control 20 Gy irradiated tibia): significantly smaller
diameter of tibia hole ([1]; 20 Gy irradiated tibia vs control 20 Gy): significantly smaller
volume of tibia hole ([1]; 20 Gy+ MMS350 vs control 20 Gy irradiated tibia): significantly smaller
1C3-1/11 conversion (autophagy) ([2]; 5 Gy): no difference
H2AX phosphorylation (DNA strand break repair) ([2]; 5 Gy): more prominent with MMS-350 than JP4-038
mitochondrial markers of apoptosis ([2]; one-hour before or 30-minutes after 5 Gy): reduced mitochondrial markers of apoptosis
radiation protection and mitigation of colony forming cells [3]: significant effectiveness
% Mortality after 24 h ([4]; 1 mg/mL): 0%
% Mortality after 48 h ([4]; 1 mg/mL): 0%
% Mortality after 24 h ([4]; 5 mg/mL): 0%
% Mortality after 48 h ([4]; 5 mg/mL): 0%
% Mortality after 24 h ([4]; 20 mg/mL): 0-10%
% Mortality after 48 h ([4]; 20 mg/mL): 0-10%
% Mortality after 24 h ([4]; 50 mg/mL): 85%
% Mortality after 48 h ([4]; 50 mg/mL): 100%
mortality after 48 hours ([4]; concentrations up to 20 mg/mL): < 10%
survival ([5]; 9.5 Gy TBI, 10 mg/kg intraperitoneally 4 hours after irradiation, p=0.0092): significantly increased survival
survival ([5]; 9.5 Gy TBI, 10 mg/kg intraperitoneally 24 hours after irradiation, p=0.0097): significantly increased survival
protection and mitigation against total body irradiation ([5]; intraperitoneal injection before or after 9.5 Gy TBI, C57BL/6 mice, n=15/group): both a protector when delivered prior to irradiation and mitigator when delivered after irradiation comparable to JP4-039
survival ([5]; single dose 24 hours after 9.5 Gy TBI, C57BL/6/HNsd mice): significant improvement in survival
survival ([6]; 20 Gy thoracic irradiated mice): significantly increased survival
pulmonary fibrosis ([6]; 20 Gy thoracic irradiation): decreased radiation pulmonary fibrosis; also recorded: significant decrease in pulmonary fibrosis
Percent Pulmonary Fibrosis ([6]; thoracic-irradiated mice, −MMS350 20.8 ± 3.9, p < 0.0001): 3.6 ± 1.1%
